How the values were obtained:
Assay in all cases: relative viability (nuclei count vs DMSO), 5 days (fraction); higher = more cells survive
[1] = compound: O[C@@H](COc1cccc2ncccc12)CN1CCN([C@@H]2c3ccccc3[C@@H]3[C@H](c4ccccc42)C3(F)F)CC1 [Zosuquidar] + CC1(C)CCC(c2ccc(Cl)cc2)=C(CN2CCN(c3ccc(C(=O)NS(=O)(=O)c4ccc(N[C@H](CCN5CCOCC5)CSc5ccccc5)c(S(=O)(=O)C(F)(F)F)c4)cc3)CC2)C1 [Navitoclax] (partner 0.5 µM)
Procedure, shortened: (§1)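 Each reported value is a median over duplicate plates. It expresses relative viability: treated-well nuclei count divided by vehicle-well nuclei count. Lung cancer cell lines in 1536-well plates were dosed by pin tool a day after seeding, alone with one drug or with a fixed anchor-drug dose plus five library-drug doses (not always all listed) in √10 steps, and nuclei were counted after 5 days.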

[2] = compound: C1=CC(=CC=C1NC(=S)NNC2=C(C=C(C=C2[N+](=O)[O-])C(F)(F)F)[N+](=O)[O-])F [Kobe2602] + O=C(CCCCCCC(=O)Nc1ccccc1)NO [Vorinostat] (partner 1 µM)
Procedure, shortened: as §1

[3] = compound: O[C@@H](COc1cccc2ncccc12)CN1CCN([C@@H]2c3ccccc3[C@@H]3[C@H](c4ccccc42)C3(F)F)CC1 [Zosuquidar] + O=C(c1cc(Cc2n[nH]c(=O)c3ccccc23)ccc1F)N1CCN(C(=O)C2CC2)CC1 [Olaparib] (partner 8 µM)
Procedure, shortened: as §1

[4] = compound: C1=CC(=CC=C1NC(=S)NNC2=C(C=C(C=C2[N+](=O)[O-])C(F)(F)F)[N+](=O)[O-])F [Kobe2602] + C[C@@H](Oc1cc(-c2cnn(C3CCNCC3)c2)cnc1N)c1c(Cl)ccc(F)c1Cl [Crizotinib] (partner 1 µM)
Procedure, shortened: as §1

Cell Line	relative viability ([1]; first compound 0.01 µM)	relative viability ([1]; first compound 0.03162 µM)	relative viability ([1]; first compound 0.1 µM)	relative viability ([1]; first compound 0.3162 µM)	relative viability ([1]; first compound 1 µM)	relative viability ([2]; first compound 0.2 µM)	relative viability ([2]; first compound 0.6325 µM)	relative viability ([2]; first compound 2 µM)	relative viability ([2]; first compound 6.325 µM)	relative viability ([2]; first compound 20 µM)	relative viability ([3]; first compound 0.01 µM)	relative viability ([3]; first compound 0.03162 µM)	relative viability ([3]; first compound 0.1 µM)	relative viability ([3]; first compound 0.3162 µM)	relative viability ([3]; first compound 1 µM)	relative viability ([4]; first compound 0.2 µM)	relative viability ([4]; first compound 0.6325 µM)	relative viability ([4]; first compound 2 µM)	relative viability ([4]; first compound 6.325 µM)	relative viability ([4]; first compound 20 µM)
NCI-H1650	1.12	1.11	1.05	1.23	1.21	0.598	0.617	0.642	0.539	0.527	0.95	0.812	0.725	0.714	0.742	0.913	1.01	0.92	1.07	1.05
NCI-H2126	0.79	0.845	0.741	0.889	0.845	0.811	0.819	0.737	0.76	0.855	0.909	0.868	0.849	0.922	0.917	1.01	1.06	0.962	1.01	0.912
PC-14	1.05	0.988	0.983	0.934	0.959	0.637	0.788	0.739	0.75	0.413	0.26	0.319	0.205	0.307	0.179	0.886	0.927	0.838	1.02	0.912
EMC-BAC-2	1.19	0.795	1.05	1.18	1.12	0.494	1.01	0.425	0.593	0.462	0.467	0.487	0.529	0.535	0.482	0.759	0.799	0.754	0.755	0.747
NCI-H1437	1.08	1.1	1.06	1.15	1.15	0.855	0.739	0.78	0.791	0.625	0.591	0.646	0.669	0.604	0.662	0.862	0.918	0.902	0.91	0.9
NCI-H2405	1.01	0.853	0.723	1.07	0.894	1.05	1.34	0.998	1.04	1.02	0.903	0.758	0.756	0.95	0.829	0.853	0.916	0.827	0.91	0.786
NCI-H1666	0.906	1	1.03	1.02	0.818	1.06	1.04	1.13	1.01	0.981	0.75	0.795	0.73	0.815	0.787	0.919	1.01		1	0.746
NCI-H1993	0.966	0.978	0.896	1.1	0.802	0.737	0.817	0.782	0.586	0.728	0.949	1.01		1.19	1.05	0.82	0.89	0.72	0.753	0.782
COR-L23	0.999	1.14	1.11	1.02	1.02	0.476	0.491	0.405	0.472	0.404	0.363	0.38	0.333	0.355	0.37	0.656	0.573	0.647	0.745	0.7
HCC-44	0.959	1.02	1.04	1.02	1.17	0.999	1.04	1.08	1.05	0.99	1.01	1.02	1.02	0.961	0.934	0.771	0.697	0.767	0.783	0.749
LU99A	0.783	0.819	0.79	0.91	0.73	0.491	0.493	0.539	0.51	0.53	0.239	0.264	0.285	0.273	0.254	0.557	0.601	0.571	0.607	0.641
NCI-H596	1.04	1.05	0.861	0.982	0.972	0.591	0.726	0.63	0.659	0.68	0.651	0.607	0.67	0.696	0.666	0.723	1.03	0.944	1.21	1
NCI-H727	0.426	0.528	0.328	0.454	0.391	1.18	1.31	1.06		1.55	0.72	0.772		0.746	0.7	0.767	0.69	0.776	0.64	0.865
NCI-H1975	1.13	1.14	1.17	1.14	0.993	0.68	0.74	0.626	0.678	0.701	0.722	0.753	0.784	0.734	0.866	1.01	0.959	0.838	0.897	0.779
NCI-H1355	1.06	0.951	0.797	0.954	1	0.589	0.687	0.577	0.588	0.622	0.677	0.709	0.791	0.826	0.809	1.04	1.12	0.747	0.952	0.957
NCI-H1755	0.988	1.01	0.954	1.07	0.949	0.743	0.743	0.671	0.744	0.802	0.873	0.88	0.778	0.92	0.867	0.842	0.851	0.821	0.83	0.884

Cell Line	relative viability ([1]; first compound 0.01 µM)	relative viability ([1]; first compound 0.03162 µM)	relative viability ([1]; first compound 0.1 µM)	relative viability ([1]; first compound 0.3162 µM)	relative viability ([1]; first compound 1 µM)	relative viability ([2]; first compound 0.2 µM)	relative viability ([2]; first compound 0.6325 µM)	relative viability ([2]; first compound 2 µM)	relative viability ([2]; first compound 6.325 µM)	relative viability ([2]; first compound 20 µM)	relative viability ([3]; first compound 0.01 µM)	relative viability ([3]; first compound 0.03162 µM)	relative viability ([3]; first compound 0.1 µM)	relative viability ([3]; first compound 0.3162 µM)	relative viability ([3]; first compound 1 µM)	relative viability ([4]; first compound 0.2 µM)	relative viability ([4]; first compound 0.6325 µM)	relative viability ([4]; first compound 2 µM)	relative viability ([4]; first compound 6.325 µM)	relative viability ([4]; first compound 20 µM)
NCI-H2009	1.19	1.12	1.13	1.1	1.14	0.715	0.783	0.763	0.752	0.692	0.631	0.611	0.684	0.639	0.65	1.02	1.03	1.01	1.05	1.03
HCC-78	1.04	0.768		0.839	0.736	0.485	0.444	0.433	0.452	0.507	0.939			0.862	0.846	0.382	0.302		0.333	0.363
NCI-H322M	1.26	1.16	1.08	1.29	1.14	0.958	1.03	0.851	0.849	0.921	0.774	0.898	0.665	0.698	0.796	0.81	0.95	0.995	0.893	0.867
HOP-62	0.825	1.13	0.939	0.924	0.975	0.707	0.717	0.559	0.763	0.688	0.461	0.548	0.485	0.665	0.384	0.803	0.9	0.961	0.873	0.962
NCI-H838	1.25	1.22	1.16	1.26	1.17	0.68	0.767	0.654	0.703	0.683	0.758	0.74	0.814	0.825	0.847	0.777	0.964	0.759	0.909	0.83
LK-2	0.989	0.931	0.875	0.954	0.847	0.295	0.334	0.376	0.305	0.551	0.542	0.891	0.597	0.752	0.852	0.248	0.273	0.231	0.271	0.257
BEN	0.523	0.0629	0.0532	0.0672	0.0608	0.634	0.606	0.581	0.56	0.625	1.15	0.953	0.883	1.02	0.97	0.948	0.727	0.894	0.843	0.819
NCI-H23	0.765	0.96	0.746	0.79	0.862	0.616	0.645	0.628	0.544	0.729	0.328		0.362	0.319	0.336	0.5	0.604	0.392	0.499	0.619
ChaGo-K-1	1.14	0.971	1.28	1.09	0.964	0.813	0.812	0.766	0.708	0.697	0.388	0.468	0.434	0.474	0.413	1.16	1.2	1.14	1.13	0.935
NCI-H1944	1.06	1.02	1	1.18	0.945	0.532	0.64	0.538	0.531	0.629	0.404	0.407	0.384	0.516	0.385	1.01	1.19	1.14	1.09	1.14
NCI-H2085	1.13	1.06	1.06	1.2	1.14	0.772	0.817	0.794	0.765	0.733	0.706	0.809		0.736	0.751	0.843	0.823	0.904	0.855	0.723
LC-2-ad	0.452	0.607	0.407	0.534	0.406	0.664	0.706	0.719	0.649	0.722	0.689	0.67	0.693	0.716	0.719	0.433	0.465	0.464	0.547	0.494
201T	1.1	1.16	1.14	1.2	1.21	0.959	0.938	0.997	1.03	1.1	0.801	0.821	0.816	0.836	0.862	1.07	1.02	1.04	1.02	1.1
NCI-H2023	0.958	1	0.916	1.05	0.92	0.56	0.75	0.566	0.481	0.317	0.498	0.549	0.52	0.485	0.477	0.674	0.627	0.526	0.611	0.473
NCI-H2347	0.891	0.686	0.583	0.931	0.944	0.523	0.696	0.732	0.661	0.705	0.589	0.545	0.579	0.603	0.475	0.613	0.643	0.612	0.712	0.785
LXF-289	0.934	0.957	0.911	0.952	1.02	0.677	0.776	0.75	0.659	0.775	1.01	1.03	1.09	1.09	1	0.789	0.826	0.826	0.792	0.791

Source: the supplement of paper PMC10307832
